This is an account of results in US20100210652A1, “Method For Controlling Fungal Pests” (priority 2006, published 2010).

The test system of assay [1] is resistant Plasmopara viticola strains. Put plainly: Activity against resistant Plasmopara viticola strains on grapevine plants (Riesling). The class given is in vivo. The settings on record: for diseased leaf area: resistant fungi, grapevine (Riesling), final evaluation on day 6; for assessment in words of the treatment of resistant fungal strains: preventative treatment. The procedure: (§1) Study on the activity of the four carboxamide fungicides against sensitive and resistant Plasmopara viticola strains.
(§2) Four-week old grapevine plants (Riesling) with 6-8 leaves are treated with 50 ml of a solution which contains the harmful fungi (200 000 spores of the fungus Plasmopara viticola per milliliter). Tests are carried out both with sensitive and with resistant strains.
(§3) The fungicidal active substances described in Example 1 are applied both one day before the treatment with the harmful fungi (preventative treatment) and in each case one day after the treatment with the harmful fungi (curative treatment). After the treatment with the harmful fungi, the plants are left to stand overnight at 95% atmospheric humidity and a temperature of 18° C. This is followed by a 6-day observation phase and a final evaluation on day 6, the test plants being exposed to daylight for 12 hours and left to stand in the dark for 12 hours.
(§4) To promote spore development, the undersides of the grapevine leaves are sprayed with water 24 hours before carrying out the final evaluation and left to stand.
(§5) The experiments are evaluated by determining the percentage of diseased leaf area of each plant. A high percentage means a high disease level caused by the harmful fungus, while a low percentage means a low disease level caused by the harmful fungus.

The subject of assay [2] is sensitive Plasmopara viticola strains. Put plainly: Activity against sensitive Plasmopara viticola strains on grapevine plants (Riesling). The settings on record: final evaluation on day 6. The assay is classed as in vivo. The procedure:
as §1, §2, §3, §4, §5

The mark [3] stands for this setting: curative treatment (one day after treatment with the harmful fungi).
[4] abbreviates: preventative treatment (one day before treatment with the harmful fungi).

For the compound `C#CCOc1ccc(CCNC(=O)C(OCC#C)c2ccc(Cl)cc2)cc1OC` (racemic) [stock solution B, (RS)-2-(4-chlorophenyl)-N-[3-methoxy-4-(prop-2-ynyloxy)phenethyl]-2-(prop-2-ynyloxy)acetamide], the diseased leaf area in assay [1] (setting [3]) worked out at 65%; in assay [1] (setting [4]) it was 8%; in assay [2] (setting [3]), 0%; in assay [2] (setting [4]) it was 0%. Further, in assay [1], the “assessment in words of the treatment of resistant fungal strains” value (shortened to “assessment in words”) is recorded as “effective”.

Consider `CC(C)OC(=O)N[C@H](C(=O)N[C@H](C)c1nc2ccc(F)cc2s1)C(C)C` [stock solution D, isopropyl[(S)-1-{[(R)-1-(6-fluoro-1,3-benzothiazol-2-yl)ethyl]carbamoyl}-2-methylpropyl]carbamate], for which the diseased leaf area in assay [1] (setting [3]) is 70%; in assay [1] (setting [4]) it was 55%; in assay [2] (setting [3]), 0%; in assay [2] (setting [4]) it was 0%. Also, the “assessment in words” value in assay [1] is listed as “no satisfactory results”.

Regarding `COc1ccc(C(=CC(=O)N2CCOCC2)c2ccc(Cl)cc2)cc1OC` [stock solution A, (E,Z)-4-[3-(4-chlorophenyl)-3-(3,4-dimethoxyphenyl)acryloyl]morpholine], the diseased leaf area is listed as 70% in assay [1] (setting [3]), 0.5% in assay [1] (setting [4]), 0% in assay [2] (setting [3]) and 0% in assay [2] (setting [4]). In addition, the “assessment in words” value in assay [1] is reported as “effective”.

Regarding `Cc1ccc(C(C)NC(=O)[C@@H](NC(=O)OC(C)C)C(C)C)cc1` (stereo partly drawn) [stock solution C, isopropyl 2-methyl-1-[(1-p-tolylethyl)carbamoyl]-(S)-propylcarbamate], the diseased leaf area came out at 75% in assay [1] (setting [3]), 70% in assay [1] (setting [4]), 0% in assay [2] (setting [3]) and 0% in assay [2] (setting [4]). In addition, the “assessment in words” value in assay [1] is listed as “no satisfactory results”.
